Assay: Neuroprotective activity against glutamate-induced neurotoxicity in Sprague-Dawley rat cortical cells at 10 uM after 24 hrs by MTT assay relative to control
Format: functional

SMILES | Activity
O=c1cc(CCc2ccccc2O)oc2cccc(O)c12 | 63.6%
C[C@]12N[C@H](Cc3ccccc31)c1ccccc12.O=C(O)/C=C\C(=O)O [DIZOCILPINE MALEATE] | 82.2%
O=c1cc(CCc2ccccc2)oc2cccc(O)c12 | 67%
O=c1cc(/C=C/c2ccccc2)oc2cccc(O)c12 | -11.3%
